Test results: US20260274892A1, “MACROCYCLIC BROAD SPECTRUM ANTIBIOTICS” (RQx Pharmaceuticals, Inc., priority 2017, published 2026)

Key:
[1] = system: Methicillin Resistant Staphylococcus aureus strain USA 200; assay: Minimum inhibitory concentration (MIC), CLSI broth micro-dilution, S. aureus; type: cell-based; settings: Staphylococcus aureus, MRSA / USA200; Table 6; MRSA USA 200; cation adjusted Mueller Hinton Broth + 0.002% Tween-80; 35° C., 22 hours
Method in brief: (§1)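 Colonies grown 20 h at 35° C on Trypticase Soy agar (MRSA) or Luria agar (E. coli) were suspended in cation-adjusted Mueller Hinton broth with 0.002% Tween-80. Suspensions were added at OD600 0.0005 to 10-point twofold compound dilutions, then incubated 22 h at 35° C.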

[2] = system: Escherichia coli ATCC 25922; assay: Minimum inhibitory concentration (MIC), CLSI broth micro-dilution, E. coli; type: cell-based; settings: Escherichia coli, ATCC25922, 22 h, Table 6, cation adjusted Mueller Hinton Broth + 0.002% Tween-80, 35° C.
Method in brief: as §1

Structure (SMILES) | MIC [1] [µM] | MIC [2] [µM]
CCCCCc1ccc(-c2ncc(C(=O)N[C@@H](CCN)C(=O)N(C)[C@@H]3C(=O)N[C@@H](C)C(=O)N[C@H](C(=O)NCC#N)Cc4ccc(O)c(c4)-c4cc3ccc4O)c(C)n2)cc1 (racemic) [Compound 432, rac-(8S,11S,14S)-N-(cyanomethyl)-3,18-dihydroxy-11-methyl-14-[methyl-[rac-(2S)-4-amino-2-[[4-methyl-2-(4-pentylphenyl)pyrimidine-5-carbonyl]amino]butanoyl]amino]-10,13-dioxo-9,12-diazatricyclo[13.3.1.12,6]icosa-1(18),2(20),3,5,15(19),16-hexaene-8-carboxamide] | 0.045 | 1.4
Cc1nc(-c2ccc(C(C)(C)C)cc2)nc(C)c1C(=O)N[C@@H](CCN)C(=O)N(C)[C@@H]1C(=O)N[C@@H](C)C(=O)N[C@H](C(=O)NCC#N)Cc2ccc(OCCCN)c(c2)-c2cc1ccc2OCCCN (racemic) [Compound 434, rac-(8S,11S,14S)-3,18-bis(3-aminopropoxy)-N-(cyanomethyl)-11-methyl-14-[methyl-[rac-(2S)-4-amino-2-[[2-(4-tert-butylphenyl)-4,6-dimethyl-pyrimidine-5-carbonyl]amino]butanoyl]amino]-10,13-dioxo-9,12-diazatricyclo[13.3.1.12,6]icosa-1(18),2(20),3,5,15(19),16-hexaene-8-carboxamide] | 0.023 | 0.21
CCCCCOc1ccc(-c2nc(C)c(C(=O)N[C@@H](CCN)C(=O)N(C)[C@@H]3C(=O)N[C@@H](C)C(=O)N[C@H](C(=O)NCC#N)Cc4ccc(OCCCN)c(c4)-c4cc3ccc4OCCCN)c(C)n2)cc1 (racemic) [Compound 435, rac-(8S,11S,14S)-3,18-bis(3-aminopropoxy)-N-(cyanomethyl)-11-methyl-14-[methyl-[rac-(2S)-4-amino-2-[[4,6-dimethyl-2-(4-pentoxyphenyl)pyrimidine-5-carbonyl]amino]butanoyl]amino]-10,13-dioxo-9,12-diazatricyclo[13.3.1.12,6]icosa-1(18),2(20),3,5,15(19),16-hexaene-8-carboxamide] | 0.012 | 0.094
Cc1nc(-c2ccc(C(C)(C)C)cc2)nc(C)c1C(=O)N[C@@H](CCN)C(=O)N(C)[C@@H]1C(=O)N[C@@H](C)C(=O)N[C@H](C(=O)NCC#N)Cc2ccc(OCCCCN)c(c2)-c2cc1ccc2OCCCCN (racemic) [Compound 437, rac-(8S,11S,14S)-3,18-bis(4-aminobutoxy)-N-(cyanomethyl)-11-methyl-14-[methyl-[rac-(2S)-4-amino-2-[[2-(4-tert-butylphenyl)-4,6-dimethyl-pyrimidine-5-carbonyl]amino]butanoyl]amino]-10,13-dioxo-9,12-diazatricyclo[13.3.1.12,6]icosa-1(18),2(20),3,5,15(19),16-hexaene-8-carboxamide] | 0.031 | 0.38
Cc1nc(-c2ccc(C(C)(C)C)cc2)ncc1C(=O)N[C@@H](CCN)C(=O)N(C)[C@@H]1C(=O)N[C@@H](C)C(=O)N[C@H](C(=O)NCC#N)Cc2ccc(OC[C@H](C)N)c(c2)-c2cc1ccc2OC[C@H](C)N (racemic) [Compound 438, rac-(8S,11S,14S)-N-(cyanomethyl)-11-methyl-14-[methyl-[rac-(2S)-4-amino-2-[[2-(4-tert-butylphenyl)-4-methyl-pyrimidine-5-carbonyl]amino]butanoyl]amino]-10,13-dioxo-3,18-bis[rac-(2S)-2-aminopropoxy]-9,12-diazatricyclo[13.3.1.12,6]icosa-1(18),2(20),3,5,15(19),16-hexaene-8-carboxamide] | 0.012 | 0.16
CCCCCCCCc1ccc(C(=O)N[C@@H](CC(=O)NC)C(=O)N(C)[C@@H]2C(=O)N[C@@H](C)C(=O)N[C@H](C(=O)NCC#N)Cc3ccc(OCCN)c(c3)-c3cc2ccc3OCCN)c(C)c1 (racemic) [Compound 443, rac-(2S)-N,N′-dimethyl-2-[(2-methyl-4-octyl-benzoyl)amino]-N-[rac-(7S,10S,13S)-3,18-bis(2-aminoethoxy)-13-(cyanomethylcarbamoyl)-10-methyl-8,11-dioxo-9,12-diazatricyclo[13.3.1.12,6]icosa-1(19),2,4,6(20),15,17-hexaen-7-yl]butanediamide] | 0.27 | 4.2
CCCCCCCCc1ccc(C(=O)N[C@@H](CCC(=O)N(C)C)C(=O)N(C)[C@@H]2C(=O)N[C@@H](C)C(=O)N[C@H](C(=O)NCC#N)Cc3ccc(OCCN)c(c3)-c3cc2ccc3OCCN)c(C)c1 (racemic) [Compound 444, rac-(2S)-N,N′,N′-trimethyl-2-[(2-methyl-4-octyl-benzoyl)amino]-N-[rac-(7S,10S,13S)-3,18-bis(2-aminoethoxy)-13-(cyanomethylcarbamoyl)-10-methyl-8,11-dioxo-9,12-diazatricyclo[13.3.1.12,6]icosa-1(19),2,4,6(20),15,17-hexaen-7-yl]pentanediamide] | 0.064 | 4.1
CCCCCCCCc1ccc(C(=O)N[C@@H](CCC(=O)NCC)C(=O)N(C)[C@@H]2C(=O)N[C@@H](C)C(=O)N[C@H](C(=O)NCC#N)Cc3ccc(OCCN)c(c3)-c3cc2ccc3OCCN)c(C)c1 (racemic) [Compound 445, rac-(2S)-N′-ethyl-N-methyl-2-[(2-methyl-4-octyl-benzoyl)amino]-N-[rac-(7S,10S,13S)-3,18-bis(2-aminoethoxy)-13-(cyanomethylcarbamoyl)-10-methyl-8,11-dioxo-9,12-diazatricyclo[13.3.1.12,6]icosa-1(19),2,4,6(20),15,17-hexaen-7-yl]pentanediamide] | 0.13 | 4.1
CCCCCCCCc1ccc(C(=O)N[C@@H](CCC(=O)NCCO)C(=O)N(C)[C@@H]2C(=O)N[C@@H](C)C(=O)N[C@H](C(=O)NCC#N)Cc3ccc(OCCN)c(c3)-c3cc2ccc3OCCN)c(C)c1 (racemic) [Compound 446, rac-(2S)-N′-(2-hydroxyethyl)-N-methyl-2-[(2-methyl-4-octyl-benzoyl)amino]-N-[rac-(7S,10S,13S)-3,18-bis(2-aminoethoxy)-13-(cyanomethylcarbamoyl)-10-methyl-8,11-dioxo-9,12-diazatricyclo[13.3.1.12,6]icosa-1(19),2,4,6(20),15,17-hexaen-7-yl]pentanediamide] | 0.032 | 4.1
CCCCCCCCc1ccc(C(=O)N[C@@H](CCC(=O)NC2COC2)C(=O)N(C)[C@@H]2C(=O)N[C@@H](C)C(=O)N[C@H](C(=O)NCC#N)Cc3ccc(OCCN)c(c3)-c3cc2ccc3OCCN)c(C)c1 (racemic) [Compound 447, rac-(2S)-N-methyl-2-[(2-methyl-4-octyl-benzoyl)amino]-N′-(oxetan-3-yl)-N-[rac-(7S,10S,13S)-3,18-bis(2-aminoethoxy)-13-(cyanomethylcarbamoyl)-10-methyl-8,11-dioxo-9,12-diazatricyclo[13.3.1.12,6]icosa-1(19),2,4,6(20),15,17-hexaen-7-yl]pentanediamide] | 0.033 | 4.2
CCCCCCCCc1ccc(C(=O)N[C@@H](CCC(=O)NC(CO)CO)C(=O)N(C)[C@@H]2C(=O)N[C@@H](C)C(=O)N[C@H](C(=O)NCC#N)Cc3ccc(OCCN)c(c3)-c3cc2ccc3OCCN)c(C)c1 (racemic) [Compound 448, rac-(2S)-N′-[2-hydroxy-1-(hydroxymethyl)ethyl]-N-methyl-2-[(2-methyl-4-octyl-benzoyl)amino]-N-[rac-(7S,10S,13S)-3,18-bis(2-aminoethoxy)-13-(cyanomethylcarbamoyl)-10-methyl-8,11-dioxo-9,12-diazatricyclo[13.3.1.12,6]icosa-1(19),2,4,6(20),15,17-hexaen-7-yl]pentanediamide] | 0.13 | 4.1
CCCCCc1ccc(-c2ncc(C(=O)N[C@@H](CCNC(N)=O)C(=O)N(C)[C@@H]3C(=O)N[C@@H](C)C(=O)N[C@H](C(=O)NCC#N)Cc4ccc(OCCN)c(c4)-c4cc3ccc4OCCN)c(C)n2)cc1 (racemic) [Compound 451, rac-(8S,11S,14S)-3,18-bis(2-aminoethoxy)-N-(cyanomethyl)-11-methyl-14-[methyl-[rac-(2S)-2-[[4-methyl-2-(4-pentylphenyl)pyrimidine-5-carbonyl]amino]-4-ureido-butanoyl]amino]-10,13-dioxo-9,12-diazatricyclo[13.3.1.12,6]icosa-1(18),2(20),3,5,15(19),16-hexaene-8-carboxamide] | 0.047 | 0.76
Cc1nc(-c2ccc(C(C)(C)C)cc2)ncc1C(=O)N[C@@H](CCNC(N)=O)C(=O)N(C)[C@@H]1C(=O)N[C@@H](C)C(=O)N[C@H](C(=O)NCC#N)Cc2ccc(OCCN)c(c2)-c2cc1ccc2OCCN (racemic) [Compound 452, rac-(8S,11S,14S)-3,18-bis(2-aminoethoxy)-N-(cyanomethyl)-11-methyl-14-[methyl-[rac-(2S)-2-[[2-(4-tert-butylphenyl)-4-methyl-pyrimidine-5-carbonyl]amino]-4-ureido-butanoyl]amino]-10,13-dioxo-9,12-diazatricyclo[13.3.1.12,6]icosa-1(18),2(20),3,5,15(19),16-hexaene-8-carboxamide] | 0.13 | 1.3
CCCCCCCc1ccc(C(=O)N[C@@H](CNC)C(=O)N(C)[C@@H]2C(=O)N[C@@H](C)C(=O)N[C@H](C(=O)NCC#N)Cc3ccc(OCCN)c(c3)-c3cc2ccc3OCCN)c(C)c1 (racemic) [Compound 453, rac-(8S,11S,14S)-3,18-bis(2-aminoethoxy)-N-(cyanomethyl)-11-methyl-14-[methyl-[rac-(2S)-2-[(4-heptyl-2-methyl-benzoyl)amino]-3-(methylamino)propanoyl]amino]-10,13-dioxo-9,12-diazatricyclo[13.3.1.12,6]icosa-1(18),2(20),3,5,15(19),16-hexaene-8-carboxamide] | 0.026 | 1.1
